For experiment [1], the target named is T1, Ephrin type-A receptor 1 (Homo sapiens) (UniProt P21709).
T1 sequence (whole entry): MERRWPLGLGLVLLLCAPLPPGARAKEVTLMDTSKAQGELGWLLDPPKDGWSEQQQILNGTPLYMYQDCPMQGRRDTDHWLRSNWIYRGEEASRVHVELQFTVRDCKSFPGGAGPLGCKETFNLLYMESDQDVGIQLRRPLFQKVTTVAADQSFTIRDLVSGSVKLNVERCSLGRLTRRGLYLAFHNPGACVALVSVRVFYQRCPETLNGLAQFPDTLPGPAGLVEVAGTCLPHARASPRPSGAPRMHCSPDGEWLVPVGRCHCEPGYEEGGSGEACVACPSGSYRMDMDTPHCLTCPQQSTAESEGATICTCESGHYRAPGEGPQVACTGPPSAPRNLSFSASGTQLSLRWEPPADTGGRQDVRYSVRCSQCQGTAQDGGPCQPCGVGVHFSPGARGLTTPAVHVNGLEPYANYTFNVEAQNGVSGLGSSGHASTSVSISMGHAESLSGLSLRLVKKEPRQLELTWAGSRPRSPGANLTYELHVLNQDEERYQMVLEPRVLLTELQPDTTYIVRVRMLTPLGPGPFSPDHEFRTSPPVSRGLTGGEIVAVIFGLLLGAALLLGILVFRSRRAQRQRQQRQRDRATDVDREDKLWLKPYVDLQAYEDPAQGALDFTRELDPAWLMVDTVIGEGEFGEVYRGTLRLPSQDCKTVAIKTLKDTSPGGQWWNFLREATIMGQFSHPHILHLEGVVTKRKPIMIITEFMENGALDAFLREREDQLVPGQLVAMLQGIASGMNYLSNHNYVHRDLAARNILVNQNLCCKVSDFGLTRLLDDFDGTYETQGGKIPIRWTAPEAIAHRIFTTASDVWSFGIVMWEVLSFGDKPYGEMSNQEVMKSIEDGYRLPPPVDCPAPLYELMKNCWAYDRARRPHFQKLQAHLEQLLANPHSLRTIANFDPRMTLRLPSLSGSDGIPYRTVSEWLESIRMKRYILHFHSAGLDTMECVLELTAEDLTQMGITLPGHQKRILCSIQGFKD
Briefly: Residual activity of EPHA1 at 1 uM by microplate scintillation counting.

In experiment [2] the target is Mitogen-activated protein kinase 9 (Homo sapiens) (UniProt P45984). Briefly: Residual activity of JNK2 at 0.1 uM by microplate scintillation counting.
Sequence of Mitogen-activated protein kinase 9 (Homo sapiens) (P45984 whole entry, looked up): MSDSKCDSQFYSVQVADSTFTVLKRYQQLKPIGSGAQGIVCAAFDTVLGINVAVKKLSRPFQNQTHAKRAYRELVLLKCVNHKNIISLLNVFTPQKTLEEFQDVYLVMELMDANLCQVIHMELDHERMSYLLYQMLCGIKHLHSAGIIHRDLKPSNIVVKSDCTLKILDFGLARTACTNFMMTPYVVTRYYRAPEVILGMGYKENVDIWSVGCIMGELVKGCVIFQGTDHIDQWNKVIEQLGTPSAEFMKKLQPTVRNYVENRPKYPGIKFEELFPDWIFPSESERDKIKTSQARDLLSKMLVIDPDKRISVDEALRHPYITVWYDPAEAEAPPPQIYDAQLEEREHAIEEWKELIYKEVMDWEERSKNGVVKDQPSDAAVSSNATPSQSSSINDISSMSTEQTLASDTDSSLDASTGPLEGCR
For experiment [3], the target named is T2, Inhibitor of nuclear factor kappa-B kinase subunit epsilon (Homo sapiens) (UniProt Q14164).
T2 sequence (whole entry): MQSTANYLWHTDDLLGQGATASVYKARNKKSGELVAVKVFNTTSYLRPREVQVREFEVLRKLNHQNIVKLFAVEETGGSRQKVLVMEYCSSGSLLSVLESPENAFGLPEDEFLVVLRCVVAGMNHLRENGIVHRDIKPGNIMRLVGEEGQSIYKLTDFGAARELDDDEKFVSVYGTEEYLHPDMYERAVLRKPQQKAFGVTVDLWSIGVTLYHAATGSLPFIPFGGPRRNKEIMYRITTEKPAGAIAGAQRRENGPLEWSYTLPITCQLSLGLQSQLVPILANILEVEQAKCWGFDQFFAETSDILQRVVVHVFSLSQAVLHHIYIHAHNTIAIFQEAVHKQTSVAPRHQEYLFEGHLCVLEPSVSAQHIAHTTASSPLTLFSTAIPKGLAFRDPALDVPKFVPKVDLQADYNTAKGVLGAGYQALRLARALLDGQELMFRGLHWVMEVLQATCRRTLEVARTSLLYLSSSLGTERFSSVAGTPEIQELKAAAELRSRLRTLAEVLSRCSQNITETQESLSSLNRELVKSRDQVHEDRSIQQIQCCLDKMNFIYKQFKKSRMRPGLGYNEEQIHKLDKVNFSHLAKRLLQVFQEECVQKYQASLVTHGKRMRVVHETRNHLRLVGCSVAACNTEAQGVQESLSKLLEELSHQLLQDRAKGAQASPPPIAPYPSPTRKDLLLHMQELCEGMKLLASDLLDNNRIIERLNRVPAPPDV
The experiment is described as follows: Residual activity of IKKepsilon at 10 uM by microplate scintillation counting.

Experiment [4] addresses T3, Myotonin-protein kinase (Homo sapiens) (UniProt Q09013).
T3 sequence (whole entry): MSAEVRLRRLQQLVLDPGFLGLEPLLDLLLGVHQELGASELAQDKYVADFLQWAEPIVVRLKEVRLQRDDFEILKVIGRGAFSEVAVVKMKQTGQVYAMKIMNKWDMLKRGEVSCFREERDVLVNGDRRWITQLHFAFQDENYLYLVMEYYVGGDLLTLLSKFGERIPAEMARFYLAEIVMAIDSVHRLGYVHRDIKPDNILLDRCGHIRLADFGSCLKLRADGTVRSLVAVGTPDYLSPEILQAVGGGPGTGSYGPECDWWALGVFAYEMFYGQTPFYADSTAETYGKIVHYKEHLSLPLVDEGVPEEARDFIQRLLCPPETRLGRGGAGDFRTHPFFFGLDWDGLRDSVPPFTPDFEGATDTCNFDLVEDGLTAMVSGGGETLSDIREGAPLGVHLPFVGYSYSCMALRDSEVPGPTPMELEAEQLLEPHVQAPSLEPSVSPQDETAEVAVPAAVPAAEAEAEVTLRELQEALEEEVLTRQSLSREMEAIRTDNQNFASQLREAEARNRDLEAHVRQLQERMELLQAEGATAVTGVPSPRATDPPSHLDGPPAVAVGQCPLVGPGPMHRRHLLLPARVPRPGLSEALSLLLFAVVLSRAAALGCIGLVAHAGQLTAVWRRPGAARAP
Briefly: Residual activity of DMPK at 0.1 uM by microplate scintillation counting.

Experiment [5] has as its target Serine/threonine-protein kinase PAK 2 (Homo sapiens) (UniProt Q13177). Briefly: Residual activity of PAK2 at 10 uM by microplate scintillation counting.
Experiment [6] concerns the target T4, Serine/threonine-protein kinase VRK1 (Homo sapiens) (UniProt Q99986).
T4 sequence (whole entry): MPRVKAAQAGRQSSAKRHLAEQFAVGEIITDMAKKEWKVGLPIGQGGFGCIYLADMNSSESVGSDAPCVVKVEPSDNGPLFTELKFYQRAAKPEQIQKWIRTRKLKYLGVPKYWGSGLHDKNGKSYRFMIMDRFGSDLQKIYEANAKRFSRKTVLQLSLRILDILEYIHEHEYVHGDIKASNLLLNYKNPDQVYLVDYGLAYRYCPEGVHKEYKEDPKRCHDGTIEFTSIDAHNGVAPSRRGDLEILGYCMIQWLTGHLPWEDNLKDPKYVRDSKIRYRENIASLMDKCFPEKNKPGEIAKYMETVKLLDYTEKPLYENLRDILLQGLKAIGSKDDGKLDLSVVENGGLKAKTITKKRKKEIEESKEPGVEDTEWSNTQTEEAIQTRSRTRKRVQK
The experiment is described as follows: Residual activity of VRK1 at 10 uM by microplate scintillation counting.

Sequence of Serine/threonine-protein kinase PAK 2 (Homo sapiens) (Q13177 whole entry): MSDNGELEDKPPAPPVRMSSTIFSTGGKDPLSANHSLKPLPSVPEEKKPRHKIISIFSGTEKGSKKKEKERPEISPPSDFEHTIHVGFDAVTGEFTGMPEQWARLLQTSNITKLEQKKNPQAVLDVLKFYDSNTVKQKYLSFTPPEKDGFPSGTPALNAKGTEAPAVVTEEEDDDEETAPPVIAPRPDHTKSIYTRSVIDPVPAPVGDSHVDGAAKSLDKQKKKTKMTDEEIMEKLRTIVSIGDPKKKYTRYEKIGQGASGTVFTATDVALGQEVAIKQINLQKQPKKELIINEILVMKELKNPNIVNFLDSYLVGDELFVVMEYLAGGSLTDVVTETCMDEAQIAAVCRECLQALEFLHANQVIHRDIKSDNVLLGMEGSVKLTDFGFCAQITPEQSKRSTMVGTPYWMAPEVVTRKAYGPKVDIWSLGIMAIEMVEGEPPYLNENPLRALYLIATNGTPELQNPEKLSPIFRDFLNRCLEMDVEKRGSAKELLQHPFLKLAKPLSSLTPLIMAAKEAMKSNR

Take `COc1cc2c(Oc3ccc(-c4nc5ccccc5s4)cc3)ncnc2cc1OCCCN1CCN(C)CC1`: the residual activity in experiment [1] was found to be 140%; in experiment [2] it was 108%; in experiment [3], 101%; in experiment [4], 128%; in experiment [5] it was 54%; in experiment [6], 127%.

As for `COc1cc2c(Oc3ccc(-c4nc5ccccc5s4)cc3)ncnc2cc1OCCCN1CCCC1`, the residual activity in experiment [1] came to 147%; in experiment [2] it was 89%; in experiment [3], 99%; in experiment [4] it was 110%; in experiment [5], 49%; in experiment [6], 135%.

As to `COc1cc2c(Oc3ccc(-c4nc5ccccc5s4)cc3F)ncnc2cc1OCCCN1CCN(C)CC1`, the residual activity in experiment [1] turned out to be 145%; in experiment [2], 103%; in experiment [3], 76%; in experiment [4] it was 102%; in experiment [5], 48%; in experiment [6], 126%.

Values taken from ChEMBL document CHEMBL1152560, “Substituted 2-arylbenzothiazoles as kinase inhibitors: hit-to-lead optimization” (Bioorg Med Chem, 2009).
